The values that follow come from patent US20230407365A1, “DIAGNOSTIC TOOL FOR SCREENING THE IMPACT OF PRODUCT INGREDIENTS FOR UROGENITAL MICROBIOMES THERAPIES” (priority 2022, published 2023).

The test system of test [1] is L. gasseri. Kind of test: L. gasseri in anaerobic conditions at 37° C., OD 600 nm (FIG. 20). In kind it is cell-based. As for the experimental part:
2010. […] Confirmation as lactobacilli was confirmed by qPCR. The treatment results are measured by OD 600 nm 1715 of one embodiment.

Test [2] deals with L. crispatus. Kind of test: L. crispatus in anaerobic conditions at 37° C., OD 600 nm (FIG. 19). Type of test: cell-based. As for the experimental part: 1910. […] Confirmation as lactobacilli was confirmed by qPCR. The treatment results are measured by OD 600 nm 1715 of one embodiment.
In another test the test system is E. coli. Kind of test: Quantitative analysis of actives for cannabinoids, culture growth by OD 600 nm (FIG. 18). Type of test: cell-based. The settings on record: aerobic conditions; compared with No treatment Ctrl. As for the experimental part: FIGS. 17A, 17B and 18 show the results of quantitative analysis of actives for cannabinoids for Lactobacillus crispatus, Lactobacillus gasseri and E. coli. Each sample is treated with a CBD distillate, THC distillate, and De Man, Rogosa and Sharpe (MRS) agar plates as indicated on chart. Additionally, a CBD isolate of the samples is also treated.
The treatment results are measured by OD 600 nm 1715 of one embodiment.

For a further test, the system named is Streptococcus pneumoniae. The settings on record: reported; cited from earlier work.
For another test, the system named is Candida albicans. Kind of test: CBD effects on C. albicans, normalized optical density (FIG. 16A). In kind it is cell-based. Conditions: anaerobically cultured Candida albicans.
Another test has as its system Staphylococcus aureus. Conditions: reported; cited from earlier work.
Test [3] concerns L. crispatus. Kind of test: Inhibition results, OD 600 nm (FIG. 21). The settings on record: MRS broth. Type of test: cell-based. As to the method: (§1) Treatments included Product R 2150, Erythromycin 2152, No trt 2154, and Ctrl 2156. […] A drop in pH was expected and observed. Follow up treatments should include a positive control using a gram-positive antibiotic, e.g erythromycin, vancomycin or tetracycline, to show inhibition of the lactobacilli strains L. gasseri 2130 and L. crispatus 2140. The treatment results are measured by OD 600 nm 1715 of one embodiment.

For test [4], the system named is L. gasseri. Description: Inhibition results, OD 600 nm (FIG. 21). Type of test: cell-based. The settings on record: MRS broth. As for the experimental part: as §1

In the case of `C=C(C)[C@@H]1CCC(C)=C[C@H]1c1c(O)cc(CCCCC)cc1O` [CBD isolate, cannabidiol], the “inhibition of growth (OD 600 nm)” value in the test on L. gasseri [1] and in the test on L. crispatus [2] was “lack of inhibition” in each case. For the same molecule, the “treatment results measured by OD 600 nm over treatment exposure times (growth inhibition)” value in the test with E. coli is “relatively similar results”.
As for `C=C(C)[C@@H]1CCC(C)=C[C@H]1c1c(O)cc(CCCCC)cc1O` [CBD, cannabidiol], the inhibitory levels entry in the test with Streptococcus pneumoniae and in the test with Staphylococcus aureus was “low micromolar range” each time. Further, the “CBD effects on C. albicans (Normalized Optical Density over time)” value with Candida albicans is on record as “positive result”.
With `CC[C@H]1OC(=O)[C@H](C)[C@@H](O[C@H]2C[C@@](C)(OC)[C@@H](O)[C@H](C)O2)[C@H](C)[C@@H](O[C@@H]2O[C@H](C)C[C@H](N(C)C)[C@H]2O)[C@](C)(O)C[C@@H](C)C(=O)[C@H](C)[C@@H](O)[C@]1(C)O` [Erythromycin], the “inhibition of growth (OD 600 nm)” value in the test on L. crispatus [3] and in the test on L. gasseri [4] was “no observed inhibition of growth” in each case.
